The record followed here is ChEMBL document CHEMBL3045892, “Synthesis and evaluation of in vitro antimicrobial activity of novel 2,3-disubstituted-4-thiazolidinones from fatty acid hydrazides” (2013).

Molecules are shown by their SMILES. Converted amounts (≈) assume the structure as drawn. A value given as a limit tells only on which side of the number the result lay.

Format in all cases: functional
The test system of test [1] is Escherichia coli. Put plainly: Antibacterial activity against Escherichia coli ATCC 25922 after 24 hr by disk diffusion method.
The test system of test [2] is Klebsiella pneumoniae. Put plainly: Antibacterial activity against Klebsiella pneumoniae clinical isolate after 24 hr by disk diffusion method. In general terms: In agar diffusion tests the substance spreads into inoculated agar from a disc or well.
In test [3] the test system is Talaromyces marneffei. Put plainly: Antifungal activity against Talaromyces marneffei incubated for 48 hr followed by subculturing measured after 48 hr.
For test [4], the system named is Talaromyces marneffei. Put plainly: Antifungal activity against Talaromyces marneffei by disk diffusion method.
The test system of test [5] is Trichophyton mentagrophytes. Put plainly: Antifungal activity against Trichophyton mentagrophytes by disk diffusion method.
Test [6] concerns Escherichia coli. Put plainly: Antibacterial activity against Escherichia coli ATCC 25922 incubated for 24 hr followed by subculturing measured after 18 to 24 hr.
For test [7], the system named is Candida albicans. Put plainly: Antifungal activity against Candida albicans after 48 hr.
Test [8] deals with Trichophyton mentagrophytes. Put plainly: Antifungal activity against Trichophyton mentagrophytes after 48 hr.
Test [9] concerns Pseudomonas aeruginosa. Put plainly: Antibacterial activity against Pseudomonas aeruginosa ATCC 27853 after 24 hr by broth dilution method. The settings on record: ATCC 27853, 24 h.
In test [10] the test system is Klebsiella pneumoniae. Put plainly: Antibacterial activity against Klebsiella pneumoniae clinical isolate after 24 hr by broth dilution method. In general terms: Broth dilution looks for growth in wells or tubes with falling amounts of substance.
Test [11] relates to Streptococcus pyogenes. Put plainly: Antibacterial activity against Streptococcus pyogenes after 24 hr by disk diffusion method.
For test [12], the system named is Pseudomonas aeruginosa. Put plainly: Antibacterial activity against Pseudomonas aeruginosa ATCC 27853 incubated for 24 hr followed by subculturing measured after 18 to 24 hr.
Test [13] deals with Escherichia coli. Put plainly: Antibacterial activity against Escherichia coli ATCC 25922 after 24 hr by broth dilution method. As to conditions: ATCC 25922, 24 h.
The test system of test [14] is Aspergillus fumigatus. Put plainly: Antifungal activity against Aspergillus fumigatus after 48 hr.
Test [15] has as its system Trichophyton mentagrophytes. Put plainly: Antifungal activity against Trichophyton mentagrophytes incubated for 48 hr followed by subculturing measured after 48 hr.
Test [16] deals with Streptococcus pyogenes. Put plainly: Antibacterial activity against Streptococcus pyogenes after 24 hr by broth dilution method.
Test [17] relates to Pseudomonas aeruginosa. Put plainly: Antibacterial activity against Pseudomonas aeruginosa ATCC 27853 after 24 hr by disk diffusion method.
Test [18] deals with Talaromyces marneffei. Put plainly: Antifungal activity against Talaromyces marneffei after 48 hr.
In test [19] the test system is Klebsiella pneumoniae. Put plainly: Antibacterial activity against Klebsiella pneumoniae clinical isolate incubated for 24 hr followed by subculturing measured after 18 to 24 hr.
Test [20] deals with Candida albicans. Put plainly: Antifungal activity against Candida albicans by disk diffusion method.
Test [21] has as its system Streptococcus pyogenes. Put plainly: Antibacterial activity against Streptococcus pyogenes incubated for 24 hr followed by subculturing measured after 18 to 24 hr.
Test [22] relates to Aspergillus fumigatus. Put plainly: Antifungal activity against Aspergillus fumigatus by disk diffusion method.
Test [23] concerns Aspergillus fumigatus. Put plainly: Antifungal activity against Aspergillus fumigatus incubated for 48 hr followed by subculturing measured after 48 hr.
Test [24] has as its system Candida albicans. Put plainly: Antifungal activity against Candida albicans incubated for 48 hr followed by subculturing measured after 48 hr.

For `CCCCC/C=C\CC[C@H](O)CCCCCCCC(=O)NN1C(=O)CSC1c1ccc(Cl)cc1` (some centres not stated), the “diameter of the inhibition zone (DIZ)” value in [1] was 14.3 mm; in test [2], 13.9 mm; in test [4], 13.3 mm; in test [5], 14.8 mm; in test [11], 15.5 mm; in test [17], 13.9 mm. Further, the “diameter of the inhibition zone (DIZ)” value in test [20] is recorded as 21.2 mm; in test [22], 18.7 mm. Besides, the MFC in test [3] worked out at 100 µg/mL (≈ 196 µM); in [15], 100 µg/mL (≈ 196 µM); in [23] it was 100 µg/mL (≈ 196 µM); in test [24], 50 µg/mL (≈ 98.2 µM). The MBC in test [6] is 100 µg/mL (≈ 196 µM); in [12], 100 µg/mL (≈ 196 µM); in [19] it was more than 100 µg/mL; in test [21], 100 µg/mL (≈ 196 µM). For the same compound, the MIC in test [7] was determined as 25 µg/mL (≈ 49.1 µM); in [8], 25 µg/mL (≈ 49.1 µM); in test [9], 50 µg/mL (≈ 98.2 µM); in test [10] it was 50 µg/mL (≈ 98.2 µM); in [13] it was 50 µg/mL (≈ 98.2 µM); in [14], 25 µg/mL (≈ 49.1 µM). Moreover, the minimal inhibitory concentration (MIC) in [16] and in test [18] was 25 µg/mL (≈ 49.1 µM) throughout.
Consider `CCCCCC[C@@H](O)C/C=C\CCCCCCCC(=O)NN1C(=O)CSC1c1ccc(Cl)cc1` (some centres not stated), for which the “diameter of the inhibition zone (DIZ)” value in test [1] is recorded as 14.5 mm; in [2] it was 14.5 mm; in test [4], 14.4 mm; in test [5] it was 18.2 mm; in test [11], 17.1 mm; in [17] it was 14.1 mm. The results for the “diameter of the inhibition zone (DIZ)” value in test [20] and in test [22] were 23.7 mm and 20.6 mm, respectively. The MFC was 100 µg/mL (≈ 196 µM) in test [3], 50 µg/mL (≈ 98.2 µM) in test [15], 50 µg/mL (≈ 98.2 µM) in test [23] and 50 µg/mL (≈ 98.2 µM) in test [24]. The MBC was more than 100 µg/mL in [6], 100 µg/mL (≈ 196 µM) in test [12], 100 µg/mL (≈ 196 µM) in [19] and 100 µg/mL (≈ 196 µM) in test [21]. Besides, the MIC in test [7] turned out to be 25 µg/mL (≈ 49.1 µM); in test [8], 25 µg/mL (≈ 49.1 µM); in [9] it was 50 µg/mL (≈ 98.2 µM); in test [10], 25 µg/mL (≈ 49.1 µM); in test [13] it was 50 µg/mL (≈ 98.2 µM); in test [14], 25 µg/mL (≈ 49.1 µM). Moreover, the MIC in test [16] was 50 µg/mL (≈ 98.2 µM); in test [18], 25 µg/mL (≈ 49.1 µM).
Turning to `CCCCCCCC/C=C\CCCCCCCC(=O)NN1C(=O)CSC1c1ccc(Cl)cc1` (configuration not stated), the “diameter of the inhibition zone (DIZ)” value in test [1] is recorded as 17.6 mm; in test [2], 17.1 mm; in test [4], 14.1 mm; in test [5] it was 17.6 mm; in test [11], 18.1 mm; in [17], 19.9 mm. Also, the “diameter of the inhibition zone (DIZ)” value turned out to be 24.2 mm in [20] and 21.4 mm in test [22]. The MFC in test [3], in test [15], in [23] and in test [24] was 50 µg/mL (≈ 101 µM) each time. The MBC in test [6] was determined as 100 µg/mL (≈ 203 µM); in test [12] it was 100 µg/mL (≈ 203 µM); in test [19] it was 50 µg/mL (≈ 101 µM); in test [21], 100 µg/mL (≈ 203 µM). Also, the MIC turned out to be 12.5 µg/mL (≈ 25.3 µM) in [7]; 25 µg/mL (≈ 50.7 µM) in [8]; 50 µg/mL (≈ 101 µM) in test [9]; 25 µg/mL (≈ 50.7 µM) in test [10]; 25 µg/mL (≈ 50.7 µM) in test [13]; 12.5 µg/mL (≈ 25.3 µM) in test [14]. The MIC in test [16] and in [18] was 25 µg/mL (≈ 50.7 µM) throughout.

As a reminder, the MFC is the smallest concentration meeting the test's criterion for killing the fungus. A higher MFC goes with less potent killing. As a reminder, the MBC is the lowest tested concentration that kills the bacteria rather than only halting them. Low values mean greater bactericidal potency, high ones weaker bactericidal potency. What is called MIC is the least concentration at which growth counts as inhibited. A high value points to weaker potency.
